Experimental data: patent US20200002283A1, “PYRAZOLE DERIVATIVES HAVING ACTIVITY AGAINST PAIN” (priority 2016, published 2020)
Like-named read-outs stand apart in the source and are kept apart here.

Legend:
[1] = target: Human α2δ-1 subunit of Cav2.2 calcium channel (Homo sapiens, UniProt P54289); test: Human α2δ-1 subunit of Cav2.2 calcium channel assay ([3H]-Gabapentin binding)
Description: Human α2δ-1 Subunit of Cav2.2 Calcium Channel Assay
Human α2δ-1 enriched membranes (2.5 μg) were incubated with 15 nM of radiolabeled [3H]-Gabapentin in assay buffer containing Hepes-KOH 10 mM, pH 7.4. NSB (non specific binding) was measured by adding 10 μM pregabalin. After 60 min incubation at 27° C., binding reaction was terminated by filtering through Multiscreen GF/C (Millipore) presoaked in 0.5% polyethyleneimine in Vacuum Manifold Station, followed by 3 washes with ice-cold filtration buffer containing 50 mM Tris-HCl, pH 7.4. Filter plates were dried at 60° C. for 1 hour and 30 μl of scintillation cocktail were added to each well before radioactivity reading. Readings were performed in a Trilux 1450 Microbeta radioactive counter (Perkin Elmer).

human μ-opioid receptor = target: T1, human μ-opioid receptor (Homo sapiens, UniProt P35372); test: Human μ-opioid receptor radioligand assay ([3H]-DAMGO); type: binding
T1 construct: expressed in transfected cells; host or cells: CHO-K1
T1 sequence (P35372 whole entry): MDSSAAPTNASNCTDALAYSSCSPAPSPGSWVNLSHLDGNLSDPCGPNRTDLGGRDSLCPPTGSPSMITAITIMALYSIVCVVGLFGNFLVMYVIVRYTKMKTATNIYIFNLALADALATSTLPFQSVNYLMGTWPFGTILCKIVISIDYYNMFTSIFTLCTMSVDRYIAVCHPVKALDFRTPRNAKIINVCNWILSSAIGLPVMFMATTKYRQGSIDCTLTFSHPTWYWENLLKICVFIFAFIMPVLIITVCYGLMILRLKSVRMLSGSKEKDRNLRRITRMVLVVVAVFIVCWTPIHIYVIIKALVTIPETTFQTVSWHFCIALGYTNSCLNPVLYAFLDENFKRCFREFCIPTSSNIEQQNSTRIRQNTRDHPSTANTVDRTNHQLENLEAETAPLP
Description: Human μ-Opioid Receptor Radioligand Assay
To investigate binding properties of test compounds to human μ-opioid receptor, transfected CHO-K1 cell membranes and [^3H]-DAMGO (Perkin Elmer, ES-542-C), as the radioligand, were used. The assay was carried out with 20 μg of membrane suspension, 1 nM of [^3H]-DAMGO in either absence or presence of either buffer or 10 μM Naloxone for total and non-specific binding, respectively. Binding buffer contained Tris-HCl 50 mM, MgCl2 5 mM at pH 7.4. Plates were incubated at 27° C. for 60 minutes. After the incubation period, the reaction mix was then transferred to MultiScreen HTS, FC plates (Millipore), filtered and plates were washed 3 times with ice-cold 10 mM Tris-HCL (pH 7.4). Filters were dried and counted at approximately 40% efficiency in a MicroBeta scintillation counter (Perkin-Elmer) using EcoScint liquid scintillation cocktail.

[2] = human α2δ-1 enriched membranes, 15 nM [3H]-Gabapentin, read-out: α2δ-1 binding
[3] = transfected CHO-K1 cell membranes, 1 nM [3H]-DAMGO, read-out: μ binding

Sequence of Human α2δ-1 subunit of Cav2.2 calcium channel (P54289 25-1103): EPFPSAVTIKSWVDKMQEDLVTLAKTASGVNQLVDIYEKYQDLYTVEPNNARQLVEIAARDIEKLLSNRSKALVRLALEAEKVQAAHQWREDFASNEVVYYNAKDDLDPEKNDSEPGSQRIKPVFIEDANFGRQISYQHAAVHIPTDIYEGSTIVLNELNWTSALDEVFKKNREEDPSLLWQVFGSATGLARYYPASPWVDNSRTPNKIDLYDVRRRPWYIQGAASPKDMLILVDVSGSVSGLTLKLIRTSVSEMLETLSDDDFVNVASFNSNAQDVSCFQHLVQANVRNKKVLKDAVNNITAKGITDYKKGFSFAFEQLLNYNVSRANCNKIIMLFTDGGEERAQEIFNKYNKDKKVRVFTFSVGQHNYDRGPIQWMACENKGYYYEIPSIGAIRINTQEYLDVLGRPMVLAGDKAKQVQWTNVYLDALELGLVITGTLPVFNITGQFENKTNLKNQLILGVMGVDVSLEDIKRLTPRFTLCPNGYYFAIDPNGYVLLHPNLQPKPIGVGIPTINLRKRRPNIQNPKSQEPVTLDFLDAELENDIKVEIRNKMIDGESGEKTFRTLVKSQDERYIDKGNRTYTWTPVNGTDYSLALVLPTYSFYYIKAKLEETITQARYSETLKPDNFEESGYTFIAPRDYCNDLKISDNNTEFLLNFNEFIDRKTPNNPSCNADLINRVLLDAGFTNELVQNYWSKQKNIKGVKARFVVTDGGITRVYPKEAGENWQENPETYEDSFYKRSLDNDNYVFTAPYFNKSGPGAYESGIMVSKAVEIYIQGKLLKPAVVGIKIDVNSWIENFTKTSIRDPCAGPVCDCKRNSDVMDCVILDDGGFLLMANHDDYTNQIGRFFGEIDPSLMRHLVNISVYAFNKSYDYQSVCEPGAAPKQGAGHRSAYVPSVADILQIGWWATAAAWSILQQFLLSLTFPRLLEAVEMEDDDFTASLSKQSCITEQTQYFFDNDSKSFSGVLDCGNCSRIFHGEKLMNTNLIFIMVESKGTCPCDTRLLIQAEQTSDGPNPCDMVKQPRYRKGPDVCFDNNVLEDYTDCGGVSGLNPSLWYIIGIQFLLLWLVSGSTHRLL

Compound | Ki [1] [nM] | Ki (human μ-opioid receptor) [nM] | Ki [1, 2] [nM] | Ki (human μ-opioid receptor; [3]) [nM]
CCCC(N)c1cc(Cc2ccc(O)c(F)c2)n(-c2ccc(Cl)cc2Cl)n1 (centres unmarked) [Example 53, 4-{[3-(1-Aminobutyl)-1-(2,4-dichlorophenyl)-1H-pyrazol-5-yl]methyl}-2-fluorophenol] | < 500 | < 100 |  | 
CC(CN)c1cc(Cc2ccc(O)cc2)n(-c2ccc(Cl)cc2Cl)n1 (centres unmarked) [Example 59, 4-{[3-(1-Aminopropan-2-yl)-1-(2,4-dichlorophenyl)-1H-pyrazol-5-yl]methyl}phenol] | > 5000 | < 100 |  | 
COc1ccc(-n2nc([C@@H](C)N)cc2Cc2ccc(O)cc2)c(Cl)c1 [Example 69, (R)-4-{[3-(1-Aminoethyl)-1-(2-chloro-4-methoxyphenyl)-1H-pyrazol-5-yl]methyl}phenol] | > 5000 | 100 to 500 |  | 
COc1ccc(Cc2cc(CN)nn2CC(C)C)cc1 [Example 11, [1-Isobutyl-5-(4-methoxybenzyl)-1H-pyrazol-3-yl]methanamine] |  |  | 500 to 3000 | > 500
NCc1cc(Cc2ccc(O)cc2)n(Cc2ccccc2)n1 [Example 46, 4-{[3-(Aminomethyl)-1-benzyl-1H-pyrazol-5-yl]methyl}phenol] |  |  | 3000 to 5000 | > 500
COc1cccc(Cc2cc(CN)nn2-c2ccc(Cl)cc2Cl)c1 [Example 8, [1-(2,4-Dichlorophenyl)-5-(3-methoxybenzyl)-1H-pyrazol-3-yl]methanamine] |  |  | 500 to 3000 | > 500
CC(N)c1cc(Cc2ccc(O)cc2)n(C2CCOCC2)n1 (centres unmarked) [Example 66, 4-{[3-(1-Aminoethyl)-1-(tetrahydro-2H-pyran-4-yl)-1H-pyrazol-5-yl]methyl}phenol] |  |  | > 5000 | > 500
CC(N)Cc1cc(Cc2ccc(O)cc2)n(-c2ccc(Cl)cc2Cl)n1 (centres unmarked) [Example 68, 4-{[3-(2-Aminopropyl)-1-(2,4-dichlorophenyl)-1H-pyrazol-5-yl]methyl}phenol] | > 5000 | < 100 |  | 
COc1ccc(-n2nc([C@H](C)N)cc2Cc2ccc(O)cc2)c(Cl)c1 [Example 70, (S)-4-{[3-(1-Aminoethyl)-1-(2-chloro-4-methoxyphenyl)-1H-pyrazol-5-yl]methyl}phenol] | < 500 | 100 to 500 |  | 
COc1ccc(Cc2cc(CN)nn2Cc2ccc(Cl)cc2Cl)cc1 [Example 15, [1-(2,4-Dichlorobenzyl)-5-(4-methoxybenzyl)-1H-pyrazol-3-yl]methanamine] |  |  | 500 to 3000 | > 500
NCc1cc(Cc2cccc(O)c2)n(-c2ccc(Cl)cc2Cl)n1 [Example 34, 3-{[3-(Aminomethyl)-1-(2,4-dichlorophenyl)-1H-pyrazol-5-yl]methyl}phenol] | 500 to 3000 | 100 to 500 |  | 
COc1ccc(Cc2cc(CN)nn2-c2ccccc2)cc1 [Example 19, [5-(4-Methoxybenzyl)-1-phenyl-1H-pyrazol-3-yl]methanamine] |  |  | 500 to 3000 | > 500
COc1ccc(Cc2cc(CN)nn2-c2ccccc2Cl)cc1 [Example 2, [1-(2-Chlorophenyl)-5-(4-methoxybenzyl)-1H-pyrazol-3-yl]methanamine] |  |  | 500 to 3000 | > 500
NCc1cc(Cc2ccc(O)cc2)n(Cc2ccccc2Cl)n1 [Example 47, 4-{[3-(Aminomethyl)-1-(2-chlorobenzyl)-1H-pyrazol-5-yl]methyl}phenol] |  |  | 500 to 3000 | > 500
CS(=O)(=O)Nc1ccc(Oc2cc(CN)nn2-c2ccc(Cl)cc2Cl)cc1 [Example 18, N-(4-{[3-(Aminomethyl)-1-(2,4-dichlorophenyl)-1H-pyrazol-5-yl]oxy}phenyl)methanesulfonamide] |  |  | > 5000 | > 500
CC(N)c1cc(C(C)(C)c2ccc(O)cc2)n(-c2ccc(Cl)cc2Cl)n1 (centres unmarked) [Example 55, 4-{2-[3-(1-Aminoethyl)-1-(2,4-dichlorophenyl)-1H-pyrazol-5-yl]propan-2-yl]phenol] |  |  | 500 to 3000 | > 500
NCc1cc(Cc2ccc(O)cc2)n(-c2ccc(O)cc2Cl)n1 [Example 41, 4-[3-(Aminomethyl)-5-(4-hydroxybenzyl)-1H-pyrazol-1-yl]-3-chlorophenol] | > 5000 | < 100 |  | 
NCc1cc(Cc2ccc(O)cc2)n(Cc2ccc(Cl)cc2)n1 [Example 45, 4-{[3-(Aminomethyl)-1-(4-chlorobenzyl)-1H-pyrazol-5-yl]methyl}phenol] |  |  | 500 to 3000 | > 500
NCCc1cc(Cc2ccc(O)cc2)n(-c2ccc(Cl)cc2Cl)n1 [Example 58, 4-{[3-(2-Aminoethyl)-1-(2,4-dichlorophenyl)-1H-pyrazol-5-yl]methyl}phenol] | 3000 to 5000 | < 100 |  | 

Compound | Ki [1] [nM] | Ki (human μ-opioid receptor) [nM] | Ki [1, 2] [nM] | Ki (human μ-opioid receptor; [3]) [nM]
CCC(N)c1cc(Cc2ccc(O)cc2)n(-c2ccc(Cl)cc2Cl)n1 (centres unmarked) [Example 54, 4-{[3-(1-Aminopropyl)-1-(2,4-dichlorophenyl)-1H-pyrazol-5-yl]methyl}phenol] | 500 to 3000 | 100 to 500 |  | 
NCc1cc(Cc2ccc(O)cc2)n(Cc2ccc(Cl)cc2Cl)n1 [Example 48] |  |  | 500 to 3000 | > 500
NCc1cc(Cc2ccc(O)cc2)n(-c2ccc(Cl)cc2Cl)n1 [Example 38, 4-{[3-(Aminomethyl)-1-(2,4-dichlorophenyl)-1H-pyrazol-5-yl]methyl}phenol] | 500 to 3000 | < 100 |  | 
NCc1cc(Cc2ccc(O)cc2)n(-c2ccccc2Cl)n1 [Example 39, 4-{[3-(Aminomethyl)-1-(2-chlorophenyl)-1H-pyrazol-5-yl]methyl}phenol] |  |  | 500 to 3000 | > 500
CCCC(N)c1cc(Cc2ccc(OC)c(F)c2)n(-c2ccc(Cl)cc2Cl)n1 (centres unmarked) [Example 31, 1-[1-(2,4-Dichlorophenyl)-5-(3-fluoro-4-methoxybenzyl)-1H-pyrazol-3-yl]butan-1-amine] |  |  | > 5000 | > 500
NC(CN1CCCCC1)c1cc(Cc2ccc(O)cc2)n(-c2ccc(Cl)cc2Cl)n1 (centres unmarked) [Example 72, 4-({3-[1-Amino-2-(piperidin-1-yl)ethyl]-1-(2,4-dichlorophenyl)-1H-pyrazol-5-yl}methyl)phenol] | > 5000 | 100 to 500 |  | 
CC(N)c1cc(Cc2ccc(OCCO)cc2)n(-c2ccc(Cl)cc2Cl)n1 (centres unmarked) [Example 75, 2-(4-{[3-(1-Aminoethyl)-1-(2,4-dichlorophenyl)-1H-pyrazol-5-yl]methyl}phenoxy)ethan-1-ol] |  |  | 500 to 3000 | > 500
COc1ccc(Cc2cc(C(C)N)nn2-c2ccc(Cl)cc2Cl)cc1F (centres unmarked) [Example 30] |  |  | > 5000 | > 500
COc1ccc(Oc2cc(CN)nn2-c2ccc(Cl)cc2Cl)cc1 [Example 17, [1-(2,4-Dichlorophenyl)-5-(4-methoxyphenoxy)-1H-pyrazol-3-yl]methanamine] | 3000 to 5000 | 100 to 500 |  | 
NCc1cc(Cc2ccc(O)cc2)n(-c2ccc(Cl)cc2)n1 [Example 40, 4-{[3-(Aminomethyl)-1-(4-chlorophenyl)-1H-pyrazol-5-yl]methyl}phenol] |  |  | 3000 to 5000 | > 500
CCOc1ccc(Cc2cc(C(C)N)nn2-c2ccc(Cl)cc2Cl)cc1 (centres unmarked) [Example 25, 1-[1-(2,4-Dichlorophenyl)-5-(4-ethoxybenzyl)-1H-pyrazol-3-yl]ethanamine] |  |  | 500 to 3000 | > 500
CC(N)c1cc(Cc2ccc(O)c(F)c2)n(-c2ccc(Cl)cc2Cl)n1 (stereo in doubt) [Example 64, (R)-4-{[3-(1-Aminoethyl)-1-(2,4-dichlorophenyl)-1H-pyrazol-5-yl]methyl}-2-fluorophenol] | > 5000 | > 500 |  | 
CC(C)(N)c1cc(Cc2ccc(O)cc2)n(-c2ccc(Cl)cc2Cl)n1 [Example 57, 4-{[3-(2-Aminopropan-2-yl)-1-(2,4-dichlorophenyl)-1H-pyrazol-5-yl]methyl}phenol] | 3000 to 5000 | < 100 |  | 
COc1ccc(Cc2cc(CN)nn2-c2ccccn2)cc1 [Example 20, [5-(4-Methoxybenzyl)-1-(pyridin-2-yl)-1H-pyrazol-3-yl]methanamine] |  |  | 3000 to 5000 | > 500
NCc1cc(Cc2ccc(O)cc2)n(-c2ccc(F)cc2Cl)n1 [Example 42, 4-{[3-(Aminomethyl)-1-(2-chloro-4-fluorophenyl)-1H-pyrazol-5-yl]methyl}phenol] | 500 to 3000 | 100 to 500 |  | 
NC(CC(=O)O)c1cc(Cc2ccc(O)cc2)n(-c2ccc(Cl)cc2Cl)n1 (centres unmarked) [Example 76, 3-Amino-3-[1-(2,4-dichlorophenyl)-5-(4-hydroxybenzyl)-1H-pyrazol-3-yl]propanoic acid] | > 5000 | 100 to 500 |  | 
CC(C)Cn1nc(CN)cc1Cc1ccc(O)cc1 [Example 44, 4-{[3-(Aminomethyl)-1-isobutyl-1H-pyrazol-5-yl]methyl}phenol] | < 500 | > 500 |  | 
CC(N)c1cc(Cc2ccc(NS(C)(=O)=O)cc2)n(-c2ccc(Cl)cc2Cl)n1 (centres unmarked) [Example 26, N-(4-{[3-(1-Aminoethyl)-1-(2,4-dichlorophenyl)-1H-pyrazol-5-yl]methyl}phenyl)methanesulfonamide] |  |  | 500 to 3000 | > 500
